Like-named read-outs stand apart in the source and are kept apart here.
What was measured:
[1] = biological target: T1, Gal4DBD-GRLBD-VP16 fusion protein in HeLa cells (Homo sapiens, UniProt P04150); conditions: cited from earlier work
T1 sequence (P04150 524-758 limits assumed): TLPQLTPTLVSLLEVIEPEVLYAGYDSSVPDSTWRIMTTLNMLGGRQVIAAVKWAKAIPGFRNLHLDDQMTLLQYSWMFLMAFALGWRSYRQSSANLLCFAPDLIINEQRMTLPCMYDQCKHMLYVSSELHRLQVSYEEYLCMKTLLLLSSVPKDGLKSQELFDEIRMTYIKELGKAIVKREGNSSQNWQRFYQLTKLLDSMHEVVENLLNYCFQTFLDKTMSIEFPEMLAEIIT

[2] = biological target: T1, Gal4DBD-GRLBD-VP16 fusion protein in HeLa cells; type: cell-based; conditions: for Luc activity induced (in words): up to 6 µM
[3] = biological target: T2, breast cancer cell line MCF7 (Homo sapiens, UniProt P04150); experiment: Cell-based functional permeability assay: luciferase reporter in MCF7 cells
T2 sequence (P04150 524-758 limits assumed): T1 sequence (P04150 524-758 limits assumed)

[4] = Solubility limit observed in the Luc assay; type: physicochemical; conditions: cell-based Luc induction (reporter) assay in HeLa cells

In the case of C[C@@H]1C[C@H]2[C@@H]3CCC4=CC(=O)C=C[C@]4(C)[C@@]3(F)[C@@H](O)C[C@]2(C)[C@@]1(O)C(N)=O [Oxdex-CONH2 (4), Oxdex-CONH2, reference compound], the EC50 ([1]; read-out: EC50 of Luc induction, HeLa cells) is given as 35000 ± 3000 nM.
With CC(=O)NCCNC(=S)NCCSCC(=O)[C@@]1(O)[C@H](C)C[C@H]2[C@@H]3CCC4=CC(=O)C=C[C@]4(C)[C@@]3(F)[C@@H](O)C[C@@]21C [Ac-Et-Sdex (15), Ac-Et-Sdex] the “concentration at which maximum Luc induction was achieved” value (“concentration” below) [2] was 0.6 µM, the EC50 [3] was 250 nM and the “concentration” value ([3]; MCF7 cells) was 1 µM. For the same compound, the “maximum Luc induction” value ([3]; MCF7 cells) was 1,200 fold.
In the case of C[C@H]1C[C@@H]2[C@H]3CCC4=CC(=O)C=C[C@@]4(C)[C@]3(F)[C@H](O)C[C@@]2(C)[C@]1(O)C(=O)CSCCNC(=S)NCCNC(=O)c1cc(NC(=O)c2cc(NC(=O)c3nccn3C)cn2C)cn1C [ImPy2-Et-Sdex (22), ImPy2-Et-Sdex], the “concentration” value [2] is reported as 6 µM.
For C[C@H]1C[C@@H]2[C@H]3CCC4=CC(=O)C=C[C@@]4(C)[C@]3(F)[C@H](O)C[C@@]2(C)[C@]1(O)C(=O)NCCNC(=O)c1cc(NC(=O)c2cc(NC(=O)c3cc(NC(=O)c4cc(NC(=O)CCCNC(=O)c5cc(NC(=O)c6cc(NC(=O)c7cc(NC(=O)c8nccn8C)cn7C)cn6C)cn5C)cn4C)cn3C)cn2C)cn1C [ImPy7γ-Et-Oxdex (24), ImPy7γ-Et-Oxdex], the “Luc induction at 10 µM, times lower than that of ImPy2-Et-Oxdex” value [2] was 4 times, the “Luc induction at 10 µM, times lower than that of ImPy-Et-Oxdex” value [2] was 7 times and the solubility [4] was no more than 10 µM.
For C[C@H]1C[C@@H]2[C@H]3CCC4=CC(=O)C=C[C@@]4(C)[C@]3(F)[C@H](O)C[C@@]2(C)[C@]1(O)C(=O)NCCNC(=O)c1cc(NC(=O)c2nccn2C)cn1C [ImPy-Et-Oxdex (27), ImPy-Et-Oxdex], the “concentration” value [2] was roughly 20 µM.
In the case of C[C@H]1C[C@@H]2[C@H]3CCC4=CC(=O)C=C[C@@]4(C)[C@]3(F)[C@H](O)C[C@@]2(C)[C@]1(O)C(=O)CSCCNC(=S)NCCNC(=O)c1cc(NC(=O)c2cc(NC(=O)c3cc(NC(=O)c4cc(NC(=O)CCCNC(=O)c5nccn5C)cn4C)cn3C)cn2C)cn1C [ImPy4γ-Et-Sdex (19), ImPy4γ-Et-Sdex], the “Luc activity induced (in words)” value [2] is reported as “lowest Luc activity among all Sdex conjugates”.
In the case of C[C@H]1C[C@@H]2[C@H]3CCC4=CC(=O)C=C[C@@]4(C)[C@]3(F)[C@H](O)C[C@@]2(C)[C@]1(O)C(=O)NCCNC(=O)c1cc(NC(=O)c2cc(NC(=O)c3cc(NC(=O)c4nccn4C)cn3C)cn2C)cn1C [ImPy3-Et-Oxdex (25), ImPy3-Et-Oxdex], the “Luc induction at 10 µM, times lower than that of ImPy2-Et-Oxdex” value [2] is reported as 4 times, the “Luc induction at 10 µM, times lower than that of ImPy-Et-Oxdex” value [2] is reported as 7 times and the solubility [4] is reported as no more than 10 µM.
In the case of C[C@H]1C[C@@H]2[C@H]3CCC4=CC(=O)C=C[C@@]4(C)[C@]3(F)[C@H](O)C[C@@]2(C)[C@]1(O)C(=O)CSCCNC(=S)NCCNC(=O)c1cc(NC(=O)c2cc(NC(=O)c3cc(NC(=O)c4nccn4C)cn3C)cn2C)cn1C [ImPy3-Et-Sdex (21), ImPy3-Et-Sdex], the “Luc activity induced (in words)” value [2] is reported as “did not achieve the maximum induction at 6 µM”.
For C[C@H]1C[C@@H]2[C@H]3CCC4=CC(=O)C=C[C@@]4(C)[C@]3(F)[C@H](O)C[C@@]2(C)[C@]1(O)C(=O)CSCCNC(=S)NCCNC(=O)c1cc(NC(=O)c2cc(NC(=O)c3cc(NC(=O)c4cc(NC(=O)CCCNC(=O)c5cc(NC(=O)c6nccn6C)cn5C)cn4C)cn3C)cn2C)cn1C [ImPy5γ-Et-Sdex (18), ImPy5γ-Et-Sdex], the “Luc activity induced (in words)” value [2] was “higher levels compared to ImPy4γ-Et-Sdex (19)”.
With C[C@H]1C[C@@H]2[C@H]3CCC4=CC(=O)C=C[C@@]4(C)[C@]3(F)[C@H](O)C[C@@]2(C)[C@]1(O)C(=O)CSCCNC(=S)NCCNC(=O)c1cc(NC(=O)c2cncn2C)cn1C [ImPy-Et-Sdex (23), ImPy-Et-Sdex] the “maximum Luc induction” value [2] was 3700 fold and the EC50 [3] was 940 nM.
With CC(=O)NCCCN(C)CCCNC(=S)NCCSCC(=O)[C@@]1(O)[C@H](C)C[C@H]2[C@@H]3CCC4=CC(=O)C=C[C@]4(C)[C@@]3(F)[C@@H](O)C[C@@]21C [Ac-Da-Sdex (28), Ac-Da-Sdex] the “concentration” value [2] was 6 µM and the “maximum Luc induction” value [2] was 3,000 fold.
In the case of C[C@H]1C[C@@H]2[C@H]3CCC4=CC(=O)C=C[C@@]4(C)[C@]3(F)[C@H](O)C[C@@]2(C)[C@]1(O)C(=O)CSCCNC(=S)NCCNC(=O)c1cc(NC(=O)c2cc(NC(=O)c3cc(NC(=O)c4cc(NC(=O)CCCNC(=O)c5cc(NC(=O)c6cc(NC(=O)c7nccn7C)cn6C)cn5C)cn4C)cn3C)cn2C)cn1C [ImPy6γ-Et-Sdex (17), ImPy6γ-Et-Sdex], the “Luc activity induced (in words)” value [2] is reported as “higher levels compared to ImPy4γ-Et-Sdex (19)”.
For C[C@@H]1C[C@H]2[C@@H]3CCC4=CC(=O)C=C[C@]4(C)[C@@]3(F)[C@@H](O)C[C@]2(C)[C@@]1(O)C(=O)CSCCNC(=S)NCCCN(C)CCCNC(=O)CCNC(=O)c1cc(NC(=O)c2cc(NC(=O)c3cc(NC(=O)c4cc(NC(=O)CCCNC(=O)c5cc(NC(=O)c6cc(NC(=O)c7cc(NC(=O)c8nccn8C)cn7C)cn6C)cn5C)cn4C)cn3C)cn2C)cn1C [ImPy7γ-βDa-Sdex (6), ImPy7γ-βDa-Sdex], the “Luc activity induced (in words)” value ([1]; cell-based functional assay) is listed as “modest Luc activity”.
With C[C@H]1C[C@@H]2[C@H]3CCC4=CC(=O)C=C[C@@]4(C)[C@]3(F)[C@H](O)C[C@@]2(C)[C@]1(O)C(=O)CSCCNC(=S)NCCNC(=O)c1cc(NC(=O)c2cc(NC(=O)c3cc(NC(=O)c4cc(NC(=O)c5nccn5C)cn4C)cn3C)cn2C)cn1C [ImPy4-Et-Sdex (20), ImPy4-Et-Sdex] the “Luc activity induced (in words)” value [2] was “did not achieve the maximum induction at 6 µM”.
In the case of C[C@H]1C[C@@H]2[C@H]3CCC4=CC(=O)C=C[C@@]4(C)[C@]3(F)[C@H](O)C[C@@]2(C)[C@]1(O)C(=O)CSCCNC(=S)NCCNC(=O)c1cc(NC(=O)c2cc(NC(=O)c3cc(NC(=O)c4cc(NC(=O)CCCNC(=O)c5cc(NC(=O)c6cc(NC(=O)c7cc(NC(=O)c8nccn8C)cn7C)cn6C)cn5C)cn4C)cn3C)cn2C)cn1C [ImPy7γ-Et-Sdex (16), ImPy7γ-Et-Sdex], the “Luc activity induction at 6 µM” value ([2]; 6 µM) is reported as 1,500 fold, the “Luc activity induced (in words)” value [2] is reported as “higher levels compared to ImPy4γ-Et-Sdex (19)” and the “Luc activity / cellular uptake (in words)” value ([3]; MCF7 cells) is reported as “modest improvement of cellular uptake”.

From paper PMC2810552 (Journal of medicinal chemistry, 2009)
